According to patent US7749728B2, “Method and system for measuring the penetration of drugs and other substances into tissue” (Cabenda Pharmaceutical Research Limited, priority 2003, dated 2010):

Legend:
HCT-116 MCCs [1] = test: Fluorescence based evaluation of anthracycline penetration in MCCs; assay type: cell-based, human; settings: immediately after 1-h, 10 µM drug exposure
Protocol: MCCs 16 were exposed to anthracyclines from one exposed side 18 using a polyarcylate apparatus 22 (FIG. 2) designed such that the bottom of each insert 10 is clamped against a flat block 24 of apparatus 22 with a layer of Parafilm (American National Can, Chicago, Ill., USA) sandwiched in between to ensure a complete seal. Each MCC 16 was exposed to a 7.5 ml stirred reservoir 28 kept under controlled gassing and temperature. A silicone O-ring 34 was used to seal the gap between the MCC 16 and the orifice in the reservoir 28. […] After 1-hour drug exposure, the reservoirs 28 were rinsed twice with fresh media. […]
The imaging system consisted of a flurouresence microscope (Zeiss III RS, Oberkochen, Germany), a cooled, monochrome CCD video camera (model 4922, Cohu, San Diego, Calif., USA), frame grabber (Scion, Frederick, Md., USA), a custom built motorized x-y stage and customized NIH-Image software (public domain program developed at the U.S. National Institutes of Health) running on a G4 Macintosh computer. […] For drug fluorescence visualization, MCCs were imaged using unmounted cryosections 1-hour after sectioning using a 510-555 nm excitation filter and a 575-640 nm emission filter.
Using the NIH-Image software application and user supplied algorithms, digital images of BrdUrd staining and drug fluorescence within MCC cryosections were analyzed in the following manner. […]

HCT-116 MCCs [2] = test: MCC penetration assay, effect-based (BrdUrd S-phase labeling after exposure from one side); assay type: cell-based, human; settings: for decrease in drug exposure seen by cells on the far side relative to the near side / trend of BrdUrd labeling with drug concentration: 1 day after 1-h exposure; for decrease in drug exposure seen by cells on the far side relative to the near side: near-side concentration matching the effect of 10 μM on the far side; for trend of BrdUrd labeling with drug concentration: first 30 μm of tissue
Protocol: Standard tissue culture inserts 10 (CM 12 mm, pore size 0.4 μm, Millipore, Nepean, ON, Canada) were coated with 150 μl collagen (rat tail type I, Sigma), dissolved in 0.01 M HCl and diluted 1:4 with 60% Ethanol to 0.75 mg/ml, and allowed to dry over night. HCT-116, 0.75×10^6 in 0.5 ml growth media, were then added to the inserts 10 and incubated for 15 hours to allow the cells to attach. The cultures 16 were then incubated for 2 days in custom built growth vessels 21 (FIG. 1(b)) to form multilayered cell cultures (MCCs) 16 which are ˜150 μm in thickness. Each growth vessel 21 includes a frame 23 that held the inserts 10 completely immersed in 130 ml of stirred media (700 rpm, 25 mm stir bar) under continual gassing (5% CO2, balance air) at 37° C. The MCCs 16 were grown in batches of 8 cultures of which 6 were treated with drug and 2 were kept as untreated controls.
MCCs 16 were exposed to anthracyclines from one exposed side 18 using a polyarcylate apparatus 22 (FIG. 2) designed such that the bottom of each insert 10 is clamped against a flat block 24 of apparatus 22 with a layer of Parafilm (American National Can, Chicago, Ill., USA) sandwiched in between to ensure a complete seal. Each MCC 16 was exposed to a 7.5 ml stirred reservoir 28 kept under controlled gassing and temperature. A silicone O-ring 34 was used to seal the gap between the MCC 16 and the orifice in the reservoir 28. Once placed in the apparatus 22, MCCs 16 were allowed to equilibrate for 45 minutes, drug was then added to the growth medium at concentrations of 0.3, 1, 3 and 10 μM. After 1-hour drug exposure, the reservoirs 28 were rinsed twice with fresh media. MCCs 16 were then incubated for a second hour prior to removal from the apparatus 22 to allow initial drug wash out from the exposed side 18 only. MCCs 16 were then removed, rinsed in fresh media three times for 15 seconds and placed in a growth vessel 21 containing 2 untreated control MCCs 16. Media was replaced at 1 and 4 hours following return to the growth vessel 21, to reduce residual drug levels. Incubation with control MCCs 16 ruled out the possibility that drug wash out into the media from the exposed sides 18 of the MCCs 16 was affecting results. MCCs 16 were left for 1 or 3 days from the time of beginning drug exposure to allow manifestation of drug effect. Following this, 100 μM BrdUrd (5-bromo-2-deoxyuridine, Sigma Chemical, Oakville, ON, Canada) was added to the media and cultures incubated for 4 hours to label S-phase cells. MCCs 16 were then removed, frozen in O.C.T. medium (Tissue-TEK, Torrance, Calif., USA) and stored at −80° C. until sectioning.
MCC cryosections (10 μm) were air dried for 24 hours and then fixed in a 1:1 mixture of acetone-methanol for 10 minutes at room temperature. Slides were immediately transferred to distilled water for 10 minutes and then treated with 2 M HCl at room temperature for 1 hour followed by neutralization for 5 minutes in 0.1 M Sodium Borate. Slides were then washed in distilled water and transferred to a PBS (phosphate buffered saline) bath. Subsequent steps were each followed by a 5 minute wash in PBS. BrdUrd incorporated into DNA was detected using a 1:200 dilution of monoclonal mouse anti-BrdUrd (clone BU33, Sigma) followed by 1:100 dilution of anti-mouse peroxidase conjugate antibody (Sigma) and 1:10 dilution of metal enhanced DAB substrate (Pierce, Rockford, Ill.). Slides were then counterstained with haematoxylin, dehydrated and mounted using Permount (Fisher Scientific, Fair Lawn, N.J., USA).
The imaging system consisted of a flurouresence microscope (Zeiss III RS, Oberkochen, Germany), a cooled, monochrome CCD video camera (model 4922, Cohu, San Diego, Calif., USA), frame grabber (Scion, Frederick, Md., USA), a custom built motorized x-y stage and customized NIH-Image software (public domain program developed at the U.S. National Institutes of Health) running on a G4 Macintosh computer. […]

[3] = weak bases; cited from earlier work
cells = settings: uptake rate vs DOX; cited from earlier work
[4] = test system: V79 multicellular spheroids; settings: ~3.5 μM×h exposure, 24 hours in drug free medium before disaggregation; cited from earlier work
[5] = test system: multi-layered cell culture; test: Example 1: BrdUrd labeling in multi-layered cell culture exposed from one side; assay type: cell-based; settings: one hour exposure from one side, 24 hours in fresh media; 5, 10 and 100 μM
Protocol: FIGS. 5 and 6 illustrate test results relating to a multi-layered cell culture 16 exposed to the anthracycline doxorubicin (DOX) (i.e. the test material). Cultures 16 were exposed to doxorubicin (at differing concentrations) from one side 18 only for one hour and then incubated for 24 hours in fresh media. Cultures 16 were then exposed to bromodeoxyuridine (BrdUrd) for two hours to label proliferating cells. BrdUrd is a thymidine analogue that is incorporated into DNA during the S phase of the cell cycle and is therefore an effective marker of cellular proliferation. Following BrdUrd exposure, cultures 16 were frozen and cyrosections taken from them. Cryosections were then immunostained to detect BrdUrd labeled S-phase cells. FIG. 6 illustrates the distribution of BrdUrd-labelled cells as a function of position within the cultures. The results clearly indicate that tissue penetration limits doxorubicin effectiveness.

SMILES	fluorescence level on the near side relative to DOX (HCT-116 MCCs [1])	decrease in drug exposure seen by cells on the far side relative to the near side (HCT-116 MCCs [2])	trend of BrdUrd labeling with drug concentration (HCT-116 MCCs [2])	pKa [3]	rate of entering cells relative to DOX (cells)	surviving fraction, 130 μm into the tissue [4]	surviving fraction, exposed outer layers [4]	effect on proliferating cells as a function of position within the culture [5]	concentration at which an equal effect is exerted on either edge of the MCC (HCT-116 MCCs [2]; 1 hour exposure at 0.3, 1, 3 and 10 μM, 1 day incubation)
COc1cccc2c1C(=O)c1c(O)c3c(c(O)c1C2=O)C[C@@](O)(C(C)=O)C[C@@H]3O[C@H]1C[C@H](N)[C@H](O)[C@H](C)O1 [DAU, daunorubicin]	~7 times	~30 fold	decreasing labeling with increasing drug concentration	~8.3	3-10 times				
COc1cccc2c1C(=O)c1c(O)c3c(c(O)c1C2=O)C[C@@](O)(C(=O)CO)C[C@@H]3O[C@H]1C[C@H](N)[C@H](O)[C@H](C)O1 [DOX, doxorubicin]		~12 fold	decreasing labeling with increasing drug concentration	~8.3		~0.6	~0.2	at low concentrations doxorubicin only affects cells close to the site of exposure	
COc1cccc2c1C(=O)c1c(O)c3c(c(O)c1C2=O)C[C@@](O)(C(=O)CO)C[C@@H]3O[C@H]1C[C@H](N)[C@@H](O)[C@H](C)O1 [EPI, epirubicin]	~1.5 times	~10 fold	decreasing labeling with increasing drug concentration	~8.1	approximately twice				10 µM
O=C1c2c(O)ccc(O)c2C(=O)c2c(NCCNCCO)ccc(NCCNCCO)c21 [MIT, mitoxantrone]		greater than 30 fold	increase in labeling on the near side with increasing drug concentration	~8.3					
